Reference: publication PMC5372168, “Serine protease SP105 activates prophenoloxidase in Asian corn borer melanization, and is regulated by serpin-3” (Scientific Reports, 2017)

Target: T1, Asian corn borer prophenoloxidase-2 (OfPPO2; PO2) (Ostrinia furnacalis, UniProt Q2I355)
T1 construct: coding region of mature PPO2 in pET28a, E. coli BL21(DE3), purified
T1 sequence (Q2I355 1-692): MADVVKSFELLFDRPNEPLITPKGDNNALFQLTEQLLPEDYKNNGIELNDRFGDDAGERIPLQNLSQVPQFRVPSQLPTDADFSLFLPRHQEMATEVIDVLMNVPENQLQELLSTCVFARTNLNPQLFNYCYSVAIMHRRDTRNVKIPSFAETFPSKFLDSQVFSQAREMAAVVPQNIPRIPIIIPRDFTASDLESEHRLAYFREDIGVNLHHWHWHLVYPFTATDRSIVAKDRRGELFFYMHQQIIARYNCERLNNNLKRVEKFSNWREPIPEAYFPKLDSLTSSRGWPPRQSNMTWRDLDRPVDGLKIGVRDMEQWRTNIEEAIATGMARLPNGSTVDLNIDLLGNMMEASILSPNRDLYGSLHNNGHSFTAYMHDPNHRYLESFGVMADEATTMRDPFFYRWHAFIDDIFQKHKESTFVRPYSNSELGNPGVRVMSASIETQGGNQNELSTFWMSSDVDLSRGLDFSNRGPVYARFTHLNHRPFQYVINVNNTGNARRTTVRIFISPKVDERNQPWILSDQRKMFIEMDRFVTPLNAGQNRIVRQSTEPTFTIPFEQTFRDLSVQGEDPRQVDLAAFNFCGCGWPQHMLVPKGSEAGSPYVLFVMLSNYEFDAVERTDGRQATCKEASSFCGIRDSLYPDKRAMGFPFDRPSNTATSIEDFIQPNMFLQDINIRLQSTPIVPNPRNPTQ
Experiment: phenoloxidase assay, A490
Assay type: biochemical
Details: PPO2 activated by Factor Xa-activated SP105Xa, 37 °C 30 min

NCCc1ccc(O)c(O)c1 [dopamine]
phenoloxidase assay, A490: PO activity in the reaction mixtures was measured using dopamine as substrate
